Source: ChEMBL document CHEMBL4507270 (2021)
Calls of active or inactive are those of the source. The calls are words filed in the database; no cut-off is given here.

How the values were obtained:
[1] = target: Serine/threonine-protein kinase WNK2 (Homo sapiens) (UniProt Q9Y3S1)
[2] = target: Serine/threonine-protein kinase MARK1 (Homo sapiens) (UniProt Q9P0L2)
[3] = target: Mitogen-activated protein kinase kinase kinase 6 (Homo sapiens) (UniProt O95382)
[4] = target: Serine/threonine-protein kinase Nek2 (Homo sapiens) (UniProt P51955)
[5] = target: Serine/threonine-protein kinase 32C (Homo sapiens) (UniProt Q86UX6)
[6] = target: Alpha-2C adrenergic receptor (Homo sapiens) (UniProt P18825); settings: Compound concentration 10.0 uM
[7] = target: Mitogen-activated protein kinase 1 (Homo sapiens) (UniProt P28482)
[8] = system: Phosphatidylinositol 4,5-bisphosphate 3-kinase catalytic subunit alpha isoform (Homo sapiens), P42336 [E542K]
[9] = target: 5-hydroxytryptamine receptor 1B (Homo sapiens) (UniProt P28222); settings: Compound concentration 10.0 uM
[10] = target: Serine/threonine-protein kinase PAK 6 (Homo sapiens) (UniProt Q9NQU5)
[11] = target: cGMP-dependent protein kinase 1 (Homo sapiens) (UniProt Q13976)
[12] = target: Phosphatidylinositol 4,5-bisphosphate 3-kinase catalytic subunit delta isoform (Homo sapiens) (UniProt O00329)
[13] = system: Epidermal growth factor receptor (Homo sapiens), P00533 [UNDEFINED MUTATION]
[14] = target: Ribosomal protein S6 kinase alpha-6 (Homo sapiens) (UniProt Q9UK32)
[15] = target: Interleukin-1 receptor-associated kinase 1 (Homo sapiens) (UniProt P51617)
[16] = target: Misshapen-like kinase 1 (Homo sapiens) (UniProt Q8N4C8)
[17] = target: Fibroblast growth factor receptor 4 (Homo sapiens) (UniProt P22455)
[18] = target: Muscarinic acetylcholine receptor M1 (Homo sapiens) (UniProt P11229); settings: Compound concentration 10.0 uM
[19] = target: 5-hydroxytryptamine receptor 7 (Homo sapiens) (UniProt P34969); settings: Compound concentration 10.0 uM
[20] = target: Serine/threonine-protein kinase STK11 (Homo sapiens) (UniProt Q15831)
[21] = target: Cyclin-dependent kinase 2 (Homo sapiens) (UniProt P24941)
[22] = target: Hepatocyte growth factor receptor (Homo sapiens) (UniProt P08581)
[23] = target: Serine/threonine-protein kinase PAK 3 (Homo sapiens) (UniProt O75914)
[24] = target: Ephrin type-A receptor 1 (Homo sapiens) (UniProt P21709)
[25] = target: Membrane-associated tyrosine- and threonine-specific cdc2-inhibitory kinase (Homo sapiens) (UniProt Q99640)
[26] = target: 1-phosphatidylinositol 3-phosphate 5-kinase (Homo sapiens) (UniProt Q9Y2I7)
[27] = target: cAMP-dependent protein kinase catalytic subunit PRKX (Homo sapiens) (UniProt P51817)
[28] = target: STE20/SPS1-related proline-alanine-rich protein kinase (Homo sapiens) (UniProt Q9UEW8)
[29] = target: Serine/threonine-protein kinase mTOR (Homo sapiens) (UniProt P42345)
[30] = target: Serine/threonine-protein kinase pim-3 (Homo sapiens) (UniProt Q86V86)
[31] = target: Sigma intracellular receptor 2 (Homo sapiens, UniProt Q5BJF2); settings: Compound concentration 10.0 uM
[32] = target: cGMP-dependent protein kinase 2 (Homo sapiens) (UniProt Q13237)
[33] = target: Fibroblast growth factor receptor 2 (Homo sapiens) (UniProt P21802)
[34] = target: Angiopoietin-1 receptor (Homo sapiens, UniProt Q02763); assay: NanoBRET assay (SGC Frankfurt) with TEK
[35] = target: Protein kinase C delta type (Homo sapiens) (UniProt Q05655)
[36] = target: Fibroblast growth factor receptor 3 (Homo sapiens, UniProt P22607)
[37] = system: Epidermal growth factor receptor (Homo sapiens), P00533 [UNDEFINED MUTATION]; remark: listed apart in the source
[38] = target: High affinity nerve growth factor receptor (Homo sapiens) (UniProt P04629)
[39] = target: Myotonin-protein kinase (Homo sapiens) (UniProt Q09013)
[40] = target: Alpha-1B adrenergic receptor (Homo sapiens) (UniProt P35368); settings: Compound concentration 10.0 uM
[41] = target: Mitogen-activated protein kinase 15 (Homo sapiens) (UniProt Q8TD08)
[42] = target: Vascular endothelial growth factor receptor 1 (Homo sapiens) (UniProt P17948)
[43] = target: Serine/threonine-protein kinase VRK2 (Homo sapiens) (UniProt Q86Y07)
[44] = target: Serine/threonine-protein kinase LATS1 (Homo sapiens) (UniProt O95835)
[45] = target: Mitogen-activated protein kinase 6 (Homo sapiens) (UniProt Q16659)
[46] = Compound concentration 1000.0 nM
[47] = Compound concentration 100.0 nM

Chain of Epidermal growth factor receptor (Homo sapiens), P00533 [UNDEFINED MUTATION] (P00533 whole entry, looked up, change not shown): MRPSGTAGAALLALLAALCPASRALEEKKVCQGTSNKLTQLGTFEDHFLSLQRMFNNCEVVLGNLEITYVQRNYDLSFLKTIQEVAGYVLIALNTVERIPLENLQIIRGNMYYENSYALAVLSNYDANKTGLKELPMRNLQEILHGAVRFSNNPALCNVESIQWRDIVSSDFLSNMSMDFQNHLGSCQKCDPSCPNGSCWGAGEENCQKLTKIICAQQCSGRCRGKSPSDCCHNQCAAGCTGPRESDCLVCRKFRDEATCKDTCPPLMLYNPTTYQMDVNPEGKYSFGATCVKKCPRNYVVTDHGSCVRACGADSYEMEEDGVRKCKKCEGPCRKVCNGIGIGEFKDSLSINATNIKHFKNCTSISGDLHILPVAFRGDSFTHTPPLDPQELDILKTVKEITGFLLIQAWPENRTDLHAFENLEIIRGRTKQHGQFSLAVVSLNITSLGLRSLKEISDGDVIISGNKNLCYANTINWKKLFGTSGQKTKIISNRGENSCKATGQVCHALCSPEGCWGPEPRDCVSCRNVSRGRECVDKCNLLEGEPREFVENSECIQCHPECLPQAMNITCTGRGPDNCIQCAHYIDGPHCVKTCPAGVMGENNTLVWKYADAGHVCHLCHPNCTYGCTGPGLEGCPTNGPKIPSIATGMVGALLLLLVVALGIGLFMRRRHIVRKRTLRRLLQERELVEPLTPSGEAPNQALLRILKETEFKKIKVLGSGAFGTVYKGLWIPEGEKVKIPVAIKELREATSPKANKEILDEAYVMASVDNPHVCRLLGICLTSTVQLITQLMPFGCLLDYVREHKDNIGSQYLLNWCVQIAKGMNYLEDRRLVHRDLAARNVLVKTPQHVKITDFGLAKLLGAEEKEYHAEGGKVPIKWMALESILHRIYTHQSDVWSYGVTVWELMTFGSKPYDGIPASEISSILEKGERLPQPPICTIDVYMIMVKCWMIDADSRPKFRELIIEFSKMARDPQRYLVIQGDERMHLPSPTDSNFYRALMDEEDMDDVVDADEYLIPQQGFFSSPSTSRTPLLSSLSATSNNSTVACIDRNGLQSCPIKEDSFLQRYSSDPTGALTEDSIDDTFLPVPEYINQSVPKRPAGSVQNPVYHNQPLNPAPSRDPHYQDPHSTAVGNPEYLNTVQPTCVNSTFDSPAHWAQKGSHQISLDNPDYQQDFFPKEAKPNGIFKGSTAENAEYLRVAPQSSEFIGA
Chain of Angiopoietin-1 receptor (Q02763 whole entry): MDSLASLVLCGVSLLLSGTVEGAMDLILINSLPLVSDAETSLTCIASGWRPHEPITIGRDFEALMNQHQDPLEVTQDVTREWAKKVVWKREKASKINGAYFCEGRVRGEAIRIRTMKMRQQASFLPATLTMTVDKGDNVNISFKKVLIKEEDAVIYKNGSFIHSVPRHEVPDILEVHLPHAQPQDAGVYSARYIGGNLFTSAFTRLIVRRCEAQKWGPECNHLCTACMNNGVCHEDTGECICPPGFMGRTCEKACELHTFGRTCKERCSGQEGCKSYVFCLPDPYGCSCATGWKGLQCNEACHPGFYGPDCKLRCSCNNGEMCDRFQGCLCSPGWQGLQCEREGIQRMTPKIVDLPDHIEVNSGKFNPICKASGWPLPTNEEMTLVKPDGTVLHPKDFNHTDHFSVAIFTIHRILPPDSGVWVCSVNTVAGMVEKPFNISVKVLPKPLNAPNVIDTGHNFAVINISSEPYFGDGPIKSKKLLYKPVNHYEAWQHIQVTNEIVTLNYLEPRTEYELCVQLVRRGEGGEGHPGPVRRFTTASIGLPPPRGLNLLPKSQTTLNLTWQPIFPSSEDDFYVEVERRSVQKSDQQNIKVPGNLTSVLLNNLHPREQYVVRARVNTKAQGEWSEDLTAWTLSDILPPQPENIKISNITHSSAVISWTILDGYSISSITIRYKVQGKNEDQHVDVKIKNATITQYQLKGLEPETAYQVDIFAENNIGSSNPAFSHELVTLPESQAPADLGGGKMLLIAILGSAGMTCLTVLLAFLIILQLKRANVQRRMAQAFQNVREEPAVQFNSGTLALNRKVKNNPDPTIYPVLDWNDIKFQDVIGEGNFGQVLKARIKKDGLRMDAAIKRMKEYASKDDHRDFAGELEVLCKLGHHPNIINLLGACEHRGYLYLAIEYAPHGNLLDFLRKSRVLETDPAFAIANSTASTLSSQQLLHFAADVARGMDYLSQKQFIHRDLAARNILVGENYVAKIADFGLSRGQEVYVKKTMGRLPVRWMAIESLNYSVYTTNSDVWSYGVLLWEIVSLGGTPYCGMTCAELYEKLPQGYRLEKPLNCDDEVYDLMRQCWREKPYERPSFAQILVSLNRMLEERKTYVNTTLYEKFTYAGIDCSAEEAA
Chain of Protein kinase C delta type (Homo sapiens) (Q05655 whole entry, looked up): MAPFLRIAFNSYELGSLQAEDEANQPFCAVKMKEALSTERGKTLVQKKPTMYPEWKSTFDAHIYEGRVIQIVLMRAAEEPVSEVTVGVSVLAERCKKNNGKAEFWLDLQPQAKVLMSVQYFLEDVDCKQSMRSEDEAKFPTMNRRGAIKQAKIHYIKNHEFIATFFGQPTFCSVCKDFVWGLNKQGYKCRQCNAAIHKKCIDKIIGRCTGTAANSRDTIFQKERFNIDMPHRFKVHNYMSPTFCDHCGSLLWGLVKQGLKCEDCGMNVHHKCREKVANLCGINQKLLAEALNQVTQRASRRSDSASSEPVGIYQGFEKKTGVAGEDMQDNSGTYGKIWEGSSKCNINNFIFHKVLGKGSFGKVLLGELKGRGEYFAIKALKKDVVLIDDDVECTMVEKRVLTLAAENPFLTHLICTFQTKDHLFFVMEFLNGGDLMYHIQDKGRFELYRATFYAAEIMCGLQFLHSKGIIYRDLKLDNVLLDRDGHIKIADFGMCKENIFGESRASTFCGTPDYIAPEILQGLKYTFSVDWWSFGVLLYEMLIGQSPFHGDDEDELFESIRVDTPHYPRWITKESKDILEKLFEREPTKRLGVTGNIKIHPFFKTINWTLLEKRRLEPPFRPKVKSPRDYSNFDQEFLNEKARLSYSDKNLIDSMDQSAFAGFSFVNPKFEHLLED
Chain of Ephrin type-A receptor 1 (Homo sapiens) (P21709 whole entry): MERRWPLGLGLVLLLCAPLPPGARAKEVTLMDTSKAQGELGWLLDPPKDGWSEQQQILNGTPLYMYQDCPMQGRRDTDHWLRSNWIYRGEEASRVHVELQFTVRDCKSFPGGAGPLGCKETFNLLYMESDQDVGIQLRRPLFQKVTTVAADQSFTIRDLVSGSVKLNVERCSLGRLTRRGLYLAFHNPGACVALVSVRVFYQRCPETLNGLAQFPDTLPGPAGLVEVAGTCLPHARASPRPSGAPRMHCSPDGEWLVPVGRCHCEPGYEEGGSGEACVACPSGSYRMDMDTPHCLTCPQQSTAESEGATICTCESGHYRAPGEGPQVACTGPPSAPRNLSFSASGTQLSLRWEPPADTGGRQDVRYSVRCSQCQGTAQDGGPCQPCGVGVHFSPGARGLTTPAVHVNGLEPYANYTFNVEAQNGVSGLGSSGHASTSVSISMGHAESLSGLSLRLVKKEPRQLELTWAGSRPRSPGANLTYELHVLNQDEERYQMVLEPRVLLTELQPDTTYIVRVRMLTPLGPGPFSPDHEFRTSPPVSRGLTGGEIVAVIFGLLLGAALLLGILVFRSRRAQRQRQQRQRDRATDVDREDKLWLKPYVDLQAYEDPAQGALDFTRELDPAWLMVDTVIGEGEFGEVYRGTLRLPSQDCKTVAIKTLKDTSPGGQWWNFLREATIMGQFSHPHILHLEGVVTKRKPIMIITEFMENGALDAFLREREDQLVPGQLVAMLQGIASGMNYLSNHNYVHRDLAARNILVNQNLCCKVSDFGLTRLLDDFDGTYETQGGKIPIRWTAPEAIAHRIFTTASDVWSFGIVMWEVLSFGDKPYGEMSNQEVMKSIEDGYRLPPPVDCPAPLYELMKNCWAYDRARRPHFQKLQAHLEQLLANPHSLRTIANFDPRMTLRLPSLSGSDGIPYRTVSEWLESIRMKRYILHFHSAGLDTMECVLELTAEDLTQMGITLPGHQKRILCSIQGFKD
Chain of Myotonin-protein kinase (Homo sapiens) (Q09013 whole entry): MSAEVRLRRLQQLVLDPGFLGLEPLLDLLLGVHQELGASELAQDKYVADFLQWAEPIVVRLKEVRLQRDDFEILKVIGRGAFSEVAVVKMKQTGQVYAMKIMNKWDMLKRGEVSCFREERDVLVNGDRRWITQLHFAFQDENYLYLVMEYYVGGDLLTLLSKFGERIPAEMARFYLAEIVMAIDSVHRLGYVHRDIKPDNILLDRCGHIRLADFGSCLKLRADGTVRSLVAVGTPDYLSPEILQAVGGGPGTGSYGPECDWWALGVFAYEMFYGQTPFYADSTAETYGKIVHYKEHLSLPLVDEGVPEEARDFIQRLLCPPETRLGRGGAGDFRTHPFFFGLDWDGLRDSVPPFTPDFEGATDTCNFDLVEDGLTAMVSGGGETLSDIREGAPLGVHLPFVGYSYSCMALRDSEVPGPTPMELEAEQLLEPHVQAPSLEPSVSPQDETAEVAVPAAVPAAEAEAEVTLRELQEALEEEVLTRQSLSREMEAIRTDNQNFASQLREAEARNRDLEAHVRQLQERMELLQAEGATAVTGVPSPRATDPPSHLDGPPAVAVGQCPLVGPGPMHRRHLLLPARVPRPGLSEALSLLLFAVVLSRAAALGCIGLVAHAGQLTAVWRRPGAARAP
Chain of cAMP-dependent protein kinase catalytic subunit PRKX (Homo sapiens) (P51817 whole entry): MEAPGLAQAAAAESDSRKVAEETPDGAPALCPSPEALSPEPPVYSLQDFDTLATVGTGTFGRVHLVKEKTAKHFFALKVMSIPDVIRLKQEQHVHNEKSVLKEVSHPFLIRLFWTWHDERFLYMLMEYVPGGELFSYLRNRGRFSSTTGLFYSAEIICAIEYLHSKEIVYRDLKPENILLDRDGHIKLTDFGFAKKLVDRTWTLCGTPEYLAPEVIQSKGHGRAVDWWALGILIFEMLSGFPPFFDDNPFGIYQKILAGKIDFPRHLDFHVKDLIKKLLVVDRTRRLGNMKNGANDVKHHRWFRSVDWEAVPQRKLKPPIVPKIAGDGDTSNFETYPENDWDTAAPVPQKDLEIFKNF

Compound: Cc1cc(NC(=O)c2cccc(S(F)(F)(F)(F)F)c2)cc(-n2ccn3nc(-c4cccnc4)cc23)c1 [BAY-309]
- residual activity [1, 46]: 100%
- residual activity [2, 46]: 100%
- residual activity [3, 46]: 62.7%
- residual activity [4, 46]: 90.8%
- residual activity [5, 46]: 75.8%
- inhibition [6]: -5.04%
- residual activity [7, 46]: 61.7%
- residual activity [8, 46]: 75.2%
- inhibition [9]: 36.8%
- residual activity [10, 46]: 100%
- residual activity [11, 46]: 100%
- residual activity [12, 46]: 100%
- residual activity [13, 46]: 95.1%
- residual activity [14, 46]: 100%
- residual activity [15, 46]: 96%
- residual activity [16, 46]: 82%
- residual activity [17, 46]: 100%
- inhibition [18]: 9.28%
- inhibition [19]: 6.71%
- residual activity [20, 46]: 100%
- residual activity [21, 46]: 100%
- residual activity [22, 46]: 77.3%
- residual activity [23, 46]: 100%
- residual activity [24, 46]: 100%
- residual activity [25, 46]: 100%
- residual activity [26, 46]: 100%
- residual activity [27, 46]: 100%
- residual activity [28, 46]: 100%
- residual activity [29, 46]: 99.2%
- residual activity [30, 46]: 100%
- inhibition [31]: 68.7%
- residual activity [32, 46]: 100%
- residual activity [33, 46]: 81.7%
- EC50 [34]: 3300 nM (not active)
- IC50 [34]: 1100 nM (not active)
- residual activity [35, 46]: 95.8%
- residual activity [36, 46]: 90.7%
- residual activity [37, 46]: 100%
- residual activity [38, 46]: 40.2%
- residual activity [39, 46]: 100%
- inhibition [40]: -8.99%
- residual activity [41, 46]: 100%
- residual activity [42, 46]: 100%
- residual activity [43, 46]: 100%
- residual activity [44, 46]: 100%
- residual activity [45, 46]: 100%

Compound: Cc1cc(C)c(-n2ccn3nc(-c4cccnc4)cc23)cc1NC(=O)c1cc(C#N)cc(S(F)(F)(F)(F)F)c1 [BAY-826]
- residual activity [1, 47]: 100%
- residual activity [2, 47]: 96.7%
- residual activity [3, 47]: 100%
- residual activity [4, 47]: 98.6%
- residual activity [5, 47]: 83.4%
- inhibition [6]: -7.91%
- residual activity [7, 47]: 88.1%
- residual activity [8, 47]: 83.6%
- inhibition [9]: 14.4%
- residual activity [10, 47]: 70.1%
- residual activity [11, 47]: 100%
- residual activity [12, 47]: 76.9%
- residual activity [13, 47]: 85.5%
- residual activity [14, 47]: 80.4%
- residual activity [15, 47]: 87.3%
- residual activity [16, 47]: 88.9%
- residual activity [17, 47]: 99.4%
- inhibition [18]: 24.8%
- inhibition [19]: -3.4%
- residual activity [20, 47]: 75.9%
- residual activity [21, 47]: 99%
- residual activity [22, 47]: 82.8%
- residual activity [23, 47]: 26.1%
- residual activity [24, 47]: 100%
- residual activity [25, 47]: 100%
- residual activity [26, 47]: 74.9%
- residual activity [27, 47]: 68.5%
- residual activity [28, 47]: 64.6%
- residual activity [29, 47]: 70.1%
- residual activity [30, 47]: 83.1%
- inhibition [31]: 64.4%
- residual activity [32, 47]: 82.7%
- residual activity [33, 47]: 84.3%
- EC50 [34]: 1.7 nM (active)
- IC50 [34]: 0.7 nM (active)
- residual activity [35, 47]: 93.1%
- residual activity [36, 47]: 95.6%
- residual activity [37, 47]: 72.9%
- residual activity [38, 47]: 74.8%
- residual activity [39, 47]: 95.6%
- inhibition [40]: -0.87%
- residual activity [41, 47]: 94.1%
- residual activity [42, 47]: 91.5%
- residual activity [43, 47]: 79.8%
- residual activity [44, 47]: 83.9%
- residual activity [45, 47]: 85.8%
